The values below come from patent publication US20090304692A1, “TRIAZINE COMPOUNDS AS PI3 KINASE AND MTOR INHIBITORS” (Wyeth, priority 2008, published 2009).

Read-outs that look alike come from different tables or passages of the source. Some results are limits rather than exact numbers.

One assay concerns the target PI3K-α (Homo sapiens, UniProt P42336). In words: PI3K-alpha fluorescence polarization assay. As to conditions: read-out: IC50 PI3Kα. Background: In fluorescence polarisation assays a small probe gives low polarisation when free and higher when bound to something large.
The next assay deals with PI3K-γ (Homo sapiens, UniProt P48736). In words: PI3K-gamma fluorescence polarization assay.
The next assay addresses Human mTOR (FLAG-TOR) (Homo sapiens, UniProt P42345). In words: mTOR kinase assay (DELFIA format, purified enzyme). Type of assay: biochemical. The conditions noted are these: read-out: IC50 mTOR.
Assay [1] has as its system human prostate LNCap tumor cell line. The assay can be described thus: In vitro cell culture growth assay (MTS), LNCap. As to conditions: Homo sapiens, LNCaP, 72 h, read-out: IC50 LNCap.

Sequence of PI3K-γ (P48736 whole entry, species assumed): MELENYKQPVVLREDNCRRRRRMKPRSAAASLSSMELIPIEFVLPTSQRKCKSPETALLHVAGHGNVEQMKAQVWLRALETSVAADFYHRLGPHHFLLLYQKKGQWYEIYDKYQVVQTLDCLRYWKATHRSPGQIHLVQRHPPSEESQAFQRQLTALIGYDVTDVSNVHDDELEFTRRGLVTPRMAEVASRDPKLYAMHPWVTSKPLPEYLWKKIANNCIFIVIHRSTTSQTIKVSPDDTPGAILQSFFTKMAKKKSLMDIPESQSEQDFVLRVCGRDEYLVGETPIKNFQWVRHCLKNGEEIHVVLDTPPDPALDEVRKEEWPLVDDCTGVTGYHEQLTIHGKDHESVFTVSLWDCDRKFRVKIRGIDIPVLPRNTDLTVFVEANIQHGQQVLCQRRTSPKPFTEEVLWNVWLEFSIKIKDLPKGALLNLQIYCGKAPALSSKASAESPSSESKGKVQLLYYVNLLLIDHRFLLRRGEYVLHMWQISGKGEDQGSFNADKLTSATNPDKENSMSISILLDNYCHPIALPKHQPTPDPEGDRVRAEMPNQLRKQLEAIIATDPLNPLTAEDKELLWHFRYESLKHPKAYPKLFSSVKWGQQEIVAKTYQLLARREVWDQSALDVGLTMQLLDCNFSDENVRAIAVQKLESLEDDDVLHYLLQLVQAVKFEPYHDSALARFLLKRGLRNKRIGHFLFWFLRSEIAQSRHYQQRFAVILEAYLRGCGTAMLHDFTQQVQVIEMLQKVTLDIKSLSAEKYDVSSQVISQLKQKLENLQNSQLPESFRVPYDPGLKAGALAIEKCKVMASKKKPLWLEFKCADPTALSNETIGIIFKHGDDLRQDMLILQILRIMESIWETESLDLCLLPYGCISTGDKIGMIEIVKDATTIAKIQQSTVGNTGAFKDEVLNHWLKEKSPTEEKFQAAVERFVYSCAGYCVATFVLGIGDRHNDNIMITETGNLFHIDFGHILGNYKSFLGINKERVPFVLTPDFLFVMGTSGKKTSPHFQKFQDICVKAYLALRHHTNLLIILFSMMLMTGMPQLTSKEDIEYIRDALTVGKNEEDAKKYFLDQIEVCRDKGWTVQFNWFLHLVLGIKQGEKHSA
Sequence of PI3K-α (P42336 whole entry, species assumed): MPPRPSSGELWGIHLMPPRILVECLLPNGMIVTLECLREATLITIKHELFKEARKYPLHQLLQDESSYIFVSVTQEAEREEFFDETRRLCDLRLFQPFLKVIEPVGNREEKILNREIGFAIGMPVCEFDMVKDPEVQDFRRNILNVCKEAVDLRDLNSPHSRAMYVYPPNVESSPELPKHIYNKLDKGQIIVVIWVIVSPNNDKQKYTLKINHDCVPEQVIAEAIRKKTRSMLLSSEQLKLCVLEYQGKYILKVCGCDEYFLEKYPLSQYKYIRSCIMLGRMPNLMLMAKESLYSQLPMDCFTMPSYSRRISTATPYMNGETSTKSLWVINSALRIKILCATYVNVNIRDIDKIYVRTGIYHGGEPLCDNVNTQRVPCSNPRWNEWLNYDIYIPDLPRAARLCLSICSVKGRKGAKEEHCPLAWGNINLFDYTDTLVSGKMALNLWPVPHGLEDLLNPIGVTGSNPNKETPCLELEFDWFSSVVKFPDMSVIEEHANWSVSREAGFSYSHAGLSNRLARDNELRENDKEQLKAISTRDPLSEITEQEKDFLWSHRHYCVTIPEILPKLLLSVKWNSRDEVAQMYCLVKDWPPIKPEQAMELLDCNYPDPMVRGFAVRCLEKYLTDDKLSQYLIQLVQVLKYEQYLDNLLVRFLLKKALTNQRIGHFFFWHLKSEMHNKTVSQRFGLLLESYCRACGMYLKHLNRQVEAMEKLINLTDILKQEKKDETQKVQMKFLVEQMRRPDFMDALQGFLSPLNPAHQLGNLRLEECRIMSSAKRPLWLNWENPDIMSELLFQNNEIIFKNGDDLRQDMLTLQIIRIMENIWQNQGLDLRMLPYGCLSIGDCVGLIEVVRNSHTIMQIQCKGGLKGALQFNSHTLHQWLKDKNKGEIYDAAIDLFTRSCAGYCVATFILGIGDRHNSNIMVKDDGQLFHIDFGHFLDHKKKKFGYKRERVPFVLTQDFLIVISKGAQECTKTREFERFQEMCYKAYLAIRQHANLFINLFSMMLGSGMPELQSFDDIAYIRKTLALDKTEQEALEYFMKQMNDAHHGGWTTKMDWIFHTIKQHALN
Sequence of PI3K-α (P27986 whole entry partner, species assumed): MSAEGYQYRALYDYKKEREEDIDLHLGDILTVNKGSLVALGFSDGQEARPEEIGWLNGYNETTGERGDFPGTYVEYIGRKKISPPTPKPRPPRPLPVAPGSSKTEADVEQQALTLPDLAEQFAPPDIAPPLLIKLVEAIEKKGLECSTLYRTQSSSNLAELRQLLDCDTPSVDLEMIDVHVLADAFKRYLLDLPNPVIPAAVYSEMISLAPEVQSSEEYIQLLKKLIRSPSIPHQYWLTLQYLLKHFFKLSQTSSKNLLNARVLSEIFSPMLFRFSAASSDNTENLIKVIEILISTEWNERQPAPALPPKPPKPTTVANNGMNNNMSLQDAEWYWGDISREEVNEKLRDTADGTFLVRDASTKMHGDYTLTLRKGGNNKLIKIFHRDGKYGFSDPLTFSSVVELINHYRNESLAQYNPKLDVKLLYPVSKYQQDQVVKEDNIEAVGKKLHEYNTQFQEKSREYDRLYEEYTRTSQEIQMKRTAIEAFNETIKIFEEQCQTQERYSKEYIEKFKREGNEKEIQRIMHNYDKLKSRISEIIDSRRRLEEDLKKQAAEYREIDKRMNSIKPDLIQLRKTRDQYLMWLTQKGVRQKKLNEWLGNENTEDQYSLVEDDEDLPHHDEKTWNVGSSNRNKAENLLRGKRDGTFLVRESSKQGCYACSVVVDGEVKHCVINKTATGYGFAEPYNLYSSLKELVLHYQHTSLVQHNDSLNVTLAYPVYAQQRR
Sequence of Human mTOR (FLAG-TOR) (P42345 1360-2549 limits assumed): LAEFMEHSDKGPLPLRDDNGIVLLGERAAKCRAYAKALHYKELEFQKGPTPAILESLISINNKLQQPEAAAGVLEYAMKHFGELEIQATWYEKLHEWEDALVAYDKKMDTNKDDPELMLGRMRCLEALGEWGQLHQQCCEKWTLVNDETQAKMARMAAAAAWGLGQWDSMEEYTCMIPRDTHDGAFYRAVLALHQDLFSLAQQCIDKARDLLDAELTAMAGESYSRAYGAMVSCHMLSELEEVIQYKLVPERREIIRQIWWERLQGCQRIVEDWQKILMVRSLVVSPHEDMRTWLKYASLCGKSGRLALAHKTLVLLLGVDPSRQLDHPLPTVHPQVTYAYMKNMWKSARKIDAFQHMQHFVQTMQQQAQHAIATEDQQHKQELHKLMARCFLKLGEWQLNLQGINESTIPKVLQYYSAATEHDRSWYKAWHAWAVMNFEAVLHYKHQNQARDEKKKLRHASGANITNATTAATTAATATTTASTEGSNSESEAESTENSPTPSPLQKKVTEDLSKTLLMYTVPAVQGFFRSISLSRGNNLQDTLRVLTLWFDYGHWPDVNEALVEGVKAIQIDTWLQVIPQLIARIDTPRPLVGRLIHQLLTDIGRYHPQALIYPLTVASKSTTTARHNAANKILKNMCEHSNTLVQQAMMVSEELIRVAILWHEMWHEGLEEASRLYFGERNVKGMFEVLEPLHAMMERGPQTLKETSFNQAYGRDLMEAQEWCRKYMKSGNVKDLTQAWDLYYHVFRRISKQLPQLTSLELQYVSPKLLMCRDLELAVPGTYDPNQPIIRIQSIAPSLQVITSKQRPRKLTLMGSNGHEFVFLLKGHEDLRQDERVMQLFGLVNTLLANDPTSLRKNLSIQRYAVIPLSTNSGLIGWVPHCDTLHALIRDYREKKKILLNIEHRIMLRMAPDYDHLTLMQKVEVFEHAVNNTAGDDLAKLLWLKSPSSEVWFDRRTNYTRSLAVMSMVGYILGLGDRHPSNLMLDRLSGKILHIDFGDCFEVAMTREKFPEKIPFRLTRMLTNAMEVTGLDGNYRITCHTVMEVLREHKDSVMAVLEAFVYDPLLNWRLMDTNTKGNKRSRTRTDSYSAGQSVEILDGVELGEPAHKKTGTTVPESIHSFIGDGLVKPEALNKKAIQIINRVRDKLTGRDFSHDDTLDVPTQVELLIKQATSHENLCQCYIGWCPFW

With `CC(C)N1CCN(c2ccc(NC(=O)Nc3ccc(-c4nc(C5CCOCC5)nc(N5CCOC[C@H]5C)n4)cc3)cc2)CC1` [Example 429, (R)-1-(4-(4-isopropylpiperazin-1-yl)phenyl)-3-(4-(4-(3-methylmorpholino)-6-(tetrahydro-2H-pyran-4-yl)-1,3,5-triazin-2-yl)phenyl)urea], the concentration for half-maximal inhibition (IC50) on PI3K-α is 483 nM; at PI3K-γ (read-out: IC50 PI3Kγ) it was 1000 nM; on Human mTOR (FLAG-TOR) it was 1.9 nM; in assay [1], 9 nM.

Take `C[C@@H]1COCCN1c1nc(-c2ccc(NC(=O)Nc3ccc(N4CCC(N(C)C)CC4)cc3)cc2)nc(C2CCOCC2)n1` [Example 430, (R)-1-(4-(4-(dimethylamino)piperidin-1-yl)phenyl)-3-(4-(4-(3-methylmorpholino)-6-(tetrahydro-2H-pyran-4-yl)-1,3,5-triazin-2-yl)phenyl)urea]: the IC50 at PI3K-α stood at 402 nM; on PI3K-γ (read-out: IC50 PI3Kγ) it was 484 nM; on Human mTOR (FLAG-TOR), 1.7 nM; in assay [1] it was 16 nM.

Take `C[C@@H]1COCCN1c1nc(-c2ccc(NC(=O)Nc3ccc(C(=O)N4CCN(C)CC4)cc3)cc2)nc(C2CCOCC2)n1` [Example 431, (R)-1-(4-(4-(3-methylmorpholino)-6-(tetrahydro-2H-pyran-4-yl)-1,3,5-triazin-2-yl)phenyl)-3-(4-(4-methylpiperazine-1-carbonyl)phenyl)urea]: the IC50 was 43 nM at PI3K-α, 340 nM at PI3K-γ (read-out: IC50 PI3Kγ), 1 nM at Human mTOR (FLAG-TOR) and < 0.8 nM in assay [1].

`CC(C)N1CCN(C(=O)c2ccc(NC(=O)Nc3ccc(-c4nc(C5CCOCC5)nc(N5CCOC[C@H]5C)n4)cc3)cc2)CC1` [Example 432, (R)-1-(4-(4-isopropylpiperazine-1-carbonyl)phenyl)-3-(4-(4-(3-methylmorpholino)-6-(tetrahydro-2H-pyran-4-yl)-1,3,5-triazin-2-yl)phenyl)urea]: the IC50 on PI3K-α is 90 nM; at PI3K-γ (read-out: IC50 PI3Kγ), 480 nM; on Human mTOR (FLAG-TOR), 0.69 nM; in assay [1], < 0.8 nM.

For `O=C(Nc1ccc(-c2nc(C3CCOCC3)nc(N3C4CCC3COC4)n2)cc1)Nc1ccc(N2CCN(C3CC3)CC2)cc1` [Example 436, 1-(4-(4-(3-oxa-8-azabicyclo[3.2.1]octan-8-yl)-6-(tetrahydro-2H-pyran-4-yl)-1,3,5-triazin-2-yl)phenyl)-3-(4-(4-cyclopropylpiperazin-1-yl)phenyl)urea], the IC50 at PI3K-α stood at 749 nM; on PI3K-γ (read-out: IC50 PI3Kγ), 3120 nM; at Human mTOR (FLAG-TOR), 0.62 nM; in assay [1], 10 nM.

With `C[C@@H]1COCCN1c1nc(-c2ccc(NC(=O)Nc3ccc(N4CCN(C5CC5)CC4)cc3)cc2)nc(N2C3CCC2COC3)n1` [Example 442, 1-(4-(4-(3-oxa-8-azabicyclo[3.2.1]octan-8-yl)-6-((R)-3-methylmorpholino)-1,3,5-triazin-2-yl)phenyl)-3-(4-(4-cyclopropylpiperazin-1-yl)phenyl)urea], the IC50 is 1760 nM at PI3K-α, > 10000 nM against PI3K-γ, 1.5 nM at Human mTOR (FLAG-TOR) and 13 nM in assay [1].

On to `C[C@@H]1COCCN1c1nc(-c2ccc(NC(=O)Nc3ccc(N4CCN(C)CC4)nc3)cc2)nc(N2C3CCC2COC3)n1` [Example 446, 1-(4-(4-(3-oxa-8-azabicyclo[3.2.1]octan-8-yl)-6-((R)-3-methylmorpholino)-1,3,5-triazin-2-yl)phenyl)-3-(6-(4-methylpiperazin-1-yl)pyridin-3-yl)urea], for which the IC50 is 835 nM at PI3K-α, 4010 nM at PI3K-γ (read-out: IC50 PI3Kγ), 0.82 nM on Human mTOR (FLAG-TOR) and 15 nM in assay [1].

For `CCN1CCN(c2ccc(NC(=O)Nc3ccc(-c4nc(N5CCOC[C@H]5C)nc(N5CCOC[C@H]5C)n4)cc3)cc2)CC1` [Example 447, 1-(4-(4,6-bis((R)-3-methylmorpholino)-1,3,5-triazin-2-yl)phenyl)-3-(4-(4-ethylpiperazin-1-yl)phenyl)urea], the IC50 on PI3K-α worked out at 390 nM; on PI3K-γ (read-out: IC50 PI3Kγ), 2800 nM; on Human mTOR (FLAG-TOR), 1.9 nM; in assay [1] it was 8 nM.

For the compound `CC(C)N1CCN(c2ccc(NC(=O)Nc3ccc(-c4nc(N5CCOC[C@H]5C)nc(N5CCOC[C@H]5C)n4)cc3)cc2)CC1` [Example 448, 1-(4-(4,6-bis((R)-3-methylmorpholino)-1,3,5-triazin-2-yl)phenyl)-3-(4-(4-isopropylpiperazin-1-yl)phenyl)urea], the IC50 is 519 nM at PI3K-α, > 10000 nM against PI3K-γ, 2.3 nM on Human mTOR (FLAG-TOR) and 18 nM in assay [1].

For `C[C@@H]1COCCN1c1nc(-c2ccc(NC(=O)Nc3ccc(C(=O)N4CCN(C)CC4)cc3)cc2)nc(N2CCOC[C@H]2C)n1` [Example 450, 1-(4-(4,6-bis((R)-3-methylmorpholino)-1,3,5-triazin-2-yl)phenyl)-3-(4-(4-methylpiperazine-1-carbonyl)phenyl)urea], the IC50 at PI3K-α is 76 nM; on PI3K-γ (read-out: IC50 PI3Kγ) it was 888 nM; at Human mTOR (FLAG-TOR), 1.7 nM; in assay [1], < 0.8 nM.

As to `CC(C)N1CCN(C(=O)c2ccc(NC(=O)Nc3ccc(-c4nc(N5CCOC[C@H]5C)nc(N5CCOC[C@H]5C)n4)cc3)cc2)CC1` [Example 451, 1-(4-(4,6-bis((R)-3-methylmorpholino)-1,3,5-triazin-2-yl)phenyl)-3-(4-(4-isopropylpiperazine-1-carbonyl)phenyl)urea], the IC50 at PI3K-α was 85 nM; at PI3K-γ (read-out: IC50 PI3Kγ), 702 nM; on Human mTOR (FLAG-TOR), 1.4 nM; in assay [1], < 0.8 nM.

On to `C[C@@H]1COCCN1c1nc(-c2ccc(NC(=O)Nc3ccc(C(=O)N(C)C)cc3)cc2)nc(N2CCOC[C@H]2C)n1` [Example 452, 4-(3-(4-(4,6-bis((R)-3-methylmorpholino)-1,3,5-triazin-2-yl)phenyl)ureido)-N,N-dimethylbenzamide], for which the IC50 is 41 nM on PI3K-α, 502 nM on PI3K-γ (read-out: IC50 PI3Kγ), 0.55 nM on Human mTOR (FLAG-TOR) and < 0.8 nM in assay [1].

Regarding `C[C@@H]1COCCN1c1nc(-c2ccc(NC(=O)Nc3ccc(CN4CCCC4)cc3)cc2)nc(N2CCOC[C@H]2C)n1` [Example 453, 1-(4-(4,6-bis((R)-3-methylmorpholino)-1,3,5-triazin-2-yl)phenyl)-3-(4-(pyrrolidin-1-ylmethyl)phenyl)urea], the IC50 was 659 nM on PI3K-α, 4270 nM at PI3K-γ (read-out: IC50 PI3Kγ), 3.3 nM at Human mTOR (FLAG-TOR) and 30 nM in assay [1].

Consider `NC(=O)c1ccc(NC(=O)Nc2ccc(-c3nc(C4CCOCC4)nc(N4C5CCC4COC5)n3)cc2)cc1` [Example 454, 4-(3-(4-(4-(3-oxa-8-azabicyclo[3.2.1]octan-8-yl)-6-(tetrahydro-2H-pyran-4-yl)-1,3,5-triazin-2-yl)phenyl)ureido)benzamide], for which the IC50 was 278 nM on PI3K-α, 1490 nM at PI3K-γ (read-out: IC50 PI3Kγ), 0.2 nM at Human mTOR (FLAG-TOR) and < 0.8 nM in assay [1].

Consider `CN(C)C(=O)c1ccc(NC(=O)Nc2ccc(-c3nc(C4CCOCC4)nc(N4C5CCC4COC5)n3)cc2)cc1` [Example 455, 4-(3-(4-(4-(3-oxa-8-azabicyclo[3.2.1]octan-8-yl)-6-(tetrahydro-2H-pyran-4-yl)-1,3,5-triazin-2-yl)phenyl)ureido)-N,N-dimethylbenzamide], for which the IC50 was 113 nM on PI3K-α, 1390 nM on PI3K-γ (read-out: IC50 PI3Kγ), 0.3 nM on Human mTOR (FLAG-TOR) and < 0.8 nM in assay [1].

Consider `O=C(Nc1ccc(C(=O)N2CCCC2)cc1)Nc1ccc(-c2nc(C3CCOCC3)nc(N3C4CCC3COC4)n2)cc1` [Example 456, 1-(4-(4-(3-oxa-8-azabicyclo[3.2.1]octan-8-yl)-6-(tetrahydro-2H-pyran-4-yl)-1,3,5-triazin-2-yl)phenyl)-3-(4-(pyrrolidine-1-carbonyl)phenyl)urea], for which the IC50 is 150 nM on PI3K-α, 1550 nM on PI3K-γ (read-out: IC50 PI3Kγ), 0.7 nM on Human mTOR (FLAG-TOR) and < 0.8 nM in assay [1].

On to `CNCCNC(=O)c1ccc(NC(=O)Nc2ccc(-c3nc(C4CCOCC4)nc(N4C5CCC4COC5)n3)cc2)cc1` [Example 458, 4-(3-(4-(4-(3-oxa-8-azabicyclo[3.2.1]octan-8-yl)-6-(tetrahydro-2H-pyran-4-yl)-1,3,5-triazin-2-yl)phenyl)ureido)-N-(2-(methylamino)ethyl)benzamide], for which the IC50 on PI3K-α was determined as 33 nM; on PI3K-γ (read-out: IC50 PI3Kγ) it was 512 nM; at Human mTOR (FLAG-TOR) it was 0.2 nM; in assay [1] it was 8 nM.

For the compound `CN(C)CCN(C)C(=O)c1ccc(NC(=O)Nc2ccc(-c3nc(C4CCOCC4)nc(N4C5CCC4COC5)n3)cc2)cc1` [Example 459, 4-(3-(4-(4-(3-oxa-8-azabicyclo[3.2.1]octan-8-yl)-6-(tetrahydro-2H-pyran-4-yl)-1,3,5-triazin-2-yl)phenyl)ureido)-N-(2-(dimethylamino)ethyl)-N-methylbenzamide], the IC50 on PI3K-α is 26 nM; at PI3K-γ (read-out: IC50 PI3Kγ) it was 483 nM; on Human mTOR (FLAG-TOR) it was 0.3 nM; in assay [1], < 0.8 nM.

As to `O=C(Nc1ccc(C(=O)N2CCOCC2)cc1)Nc1ccc(-c2nc(C3CCOCC3)nc(N3C4CCC3COC4)n2)cc1` [Example 460, 1-(4-(4-(3-oxa-8-azabicyclo[3.2.1]octan-8-yl)-6-(tetrahydro-2H-pyran-4-yl)-1,3,5-triazin-2-yl)phenyl)-3-(4-(morpholine-4-carbonyl)phenyl)urea], the IC50 was 143 nM at PI3K-α, 1080 nM on PI3K-γ (read-out: IC50 PI3Kγ), 0.4 nM at Human mTOR (FLAG-TOR) and < 0.8 nM in assay [1].

Regarding `NCCNc1ccc(NC(=O)Nc2ccc(-c3nc(N4C5CCC4COC5)nc(N4C5CCC4COC5)n3)cc2)cc1` [Example 461, 1-(4-(2-aminoethylamino)phenyl)-3-(4-(4,6-di(3-oxa-8-azabicyclo[3.2.1]octan-8-yl)-1,3,5-triazin-2-yl)phenyl)urea], the IC50 on PI3K-α was determined as 482 nM; at PI3K-γ (read-out: IC50 PI3Kγ) it was 4420 nM; on Human mTOR (FLAG-TOR) it was 1.1 nM; in assay [1], 68 nM.

In general, IC50 refers to the midpoint of a concentration-inhibition curve.
